Data taken from patent US6057311A, “Benzodiazonine derivatives binding to cholecystokinin or gastrin receptors” (James Black Foundation Limited, priority 1996, dated 2000).

How the values were obtained:
CCKB receptor = target: T1, CCKB receptor (Mus musculus, UniProt P56481); experiment: radioligand binding assay at the CCKB receptor in mouse cortical membranes ([125I]-CCK8S); conditions: [125I]-CCK8S 200 pM, 150 min at 21±3° C.; for Ki: pH 7.2, read-out: pKi (Mouse cortex) (converted); for pKi (Mouse cortex): pH 7.2
T1 construct: The cortex was dissected, weighed and homogenised in 40 ml ice-cold buffer; tissue Charles River (animals); host or cells: cerebral cortex of male CD1 mice, membranes
T1 sequence (P56481 1-453): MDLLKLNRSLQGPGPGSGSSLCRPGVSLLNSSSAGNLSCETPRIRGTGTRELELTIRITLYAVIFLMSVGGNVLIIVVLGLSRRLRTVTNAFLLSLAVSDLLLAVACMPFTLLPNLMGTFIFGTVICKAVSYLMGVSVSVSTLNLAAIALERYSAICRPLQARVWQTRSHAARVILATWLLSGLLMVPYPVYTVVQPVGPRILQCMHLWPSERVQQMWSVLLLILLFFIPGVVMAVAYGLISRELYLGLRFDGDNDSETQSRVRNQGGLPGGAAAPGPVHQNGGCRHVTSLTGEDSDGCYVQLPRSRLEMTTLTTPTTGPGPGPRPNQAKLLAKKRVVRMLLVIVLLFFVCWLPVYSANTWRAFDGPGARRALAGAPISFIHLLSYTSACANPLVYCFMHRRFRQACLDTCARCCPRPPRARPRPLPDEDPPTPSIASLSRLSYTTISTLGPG
Protocol: The compounds of the examples were tested for binding at the CCKB receptor in mouse cortical membranes by means of a radioligand binding assay. The procedure was as follows:
The whole brains from male mice (CD1 22-25 g; Charles River) were removed and placed in ice-cold buffer (pH7.2@21±3° C.) of the following composition (mM); 10 HEPES, 130 NaCl, 4.7 KCl, 5 MgCl2, 1 EDTA and containing 0.25 g.1^-1 bacitracin. The cortex was dissected, weighed and homogenised in 40 ml ice-cold buffer using a Teflon-in-glass homogeniser. The homogenate was centrifuged at 39,800 g for 20 min at 4° C., the supernatant discarded and the pellet resuspended by homogenisation in fresh buffer. The homogenate was recentrifuged (39,800 g; 20 min @4° C.) and the final pellet was resuspended in HEPES buffer to give a tissue concentration of 2 mg.ml^-1 (original wet weight).
The membranes (400 μl) were incubated for 150 min at 21±3° C. in a final volume of 0.5 ml with HEPES buffer containing [^125 I]-CCK8S (0.05 ml; 200 pM NEN 2200 Ci.mmol^-1) and competing compound. Total and non-specific binding of [^125 I]-CCK8S were defined using 0.05 ml of buffer and 0.05 ml of […] L-365,260, respectively. The assay was terminated by rapid filtration through pre-soaked Whatman GF/B filters using a Brandell Cell harvester. The filters were washed (3×3 ml) with ice-cold 50 mM Tris-HCl (pH7.4@4° C.) and bound radioactivity determined by counting (1 min.) in a gamma-counter.

CCKA = target: T2, CCKA (Cavia porcellus, UniProt Q63931); experiment: CCKA binding assay, guinea pig pancreas membranes ([125I]-CCK8(S)); conditions: [125I]-CCK8(S) 200 pM, 0.375 μM PD134,308, 150 min at 21±3° C.; for Ki: pH 7.2, read-out: pKi (Guinea pig pancreas) (converted); for pKi (Guinea pig pancreas): pH 7.2
T2 construct: The pancreatata were removed from male guinea-pigs; from tissue; host or cells: pancreas of male Dunkin Hartley guinea pigs, membranes
T2 sequence (Q63931 1-430): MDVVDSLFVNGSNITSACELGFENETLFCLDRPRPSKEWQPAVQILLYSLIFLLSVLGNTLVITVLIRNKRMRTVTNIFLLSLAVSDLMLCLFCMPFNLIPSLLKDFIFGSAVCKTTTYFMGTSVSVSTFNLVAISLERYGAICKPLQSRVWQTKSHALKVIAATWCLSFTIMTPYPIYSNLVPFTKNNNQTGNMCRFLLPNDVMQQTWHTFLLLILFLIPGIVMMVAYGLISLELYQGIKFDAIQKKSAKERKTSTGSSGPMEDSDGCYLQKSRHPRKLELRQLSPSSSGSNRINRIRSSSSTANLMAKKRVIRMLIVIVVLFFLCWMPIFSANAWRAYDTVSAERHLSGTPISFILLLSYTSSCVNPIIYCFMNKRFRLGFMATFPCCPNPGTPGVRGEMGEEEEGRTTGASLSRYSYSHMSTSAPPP
Protocol: The compounds of the examples were also tested in a CCKA binding assay as follows:
The pancreatata were removed from male guinea-pigs (200-300 g; Dunkin Hartley) and placed in ice-cold HEPES buffer (pH 7.2@21±3° C.). The pancreatata were homogenised in 40 ml ice-cold HEPES buffer using a polytron (Brinkmann, PT10, setting 10) 4×1 second. The homogenate was centrifuged at 39,800 g for 15 min at 4° C. The supernatant was discarded and the pellet re-suspended using a Teflon-in-glass homogeniser in 20 volumes of fresh buffer and re-centrifuged as above. The final pellet was re-suspended using a Teflon-in-glass homogeniser to a tissue concentration of 1 mg.ml^-1 (original wet weight), and filtered through 500 μm pore-size Nytex mesh.
The membranes (400 μl; containing 0.375 μM PD134,308) were incubated for 150 minutes at 21±3° C. in a final volume of 0.5 ml with HEPES buffer containing [^125 I]-CCK8 (S) (50 μl; 200 pM) and competing compound. Total and non-specific binding of [^125 I]-CCK8 (S) were defined using 50 μl of buffer and 50 μl of 100 nM L-364,718 respectively. The assay was terminated by rapid filtration through pre-soaked Whatman GF/B filters using a Brandell Cell Harvester. The filters were washed (3×3 ml) with ice-cold 50 mM Tris HCl (pH 7.4 at 4° C.) and bound radioactivity was determined by counting (1 min) in a gamma counter.

| Compound | Ki (CCKB receptor) | Ki (CCKA) | pKi (Mouse cortex) (CCKB receptor) | pKi (Guinea pig pancreas) (CCKA) |
| --- | --- | --- | --- | --- |
| CC(C)(C)OC(=O)CN1C(=O)CN(C(=O)Nc2ccc(Cl)c(Cl)c2)CCC(=O)c2ccccc21 [Example 2, 1-tert-butyloxycarbonylmethyl-4-(3,4-dichlorophenyl)-carbamyl-2,7-dioxo-2,3,4,5,6,7-hexahydro-1H-1,4-benzodiazonine] | 1260 nM | 50.1 nM | – | – |
| CC(=O)N1[C@H](CC23CC4CC(CC(C4)C2)C3)C(=O)N(Cc2ccc(Cl)cc2)c2ccccc2C(=O)C[C@H]1C(=O)O [Example 16, (3R,5S)-4-acetyl-3-[(1-adamantyl)methyl]-1-(4-chloro)benzyl-2,7-dioxo-2,3,4,5,6,7-hexahydro-1H-1,4-benzodiazonine-5-carboxylate] | 1580 nM | 2000 nM | – | – |
| CC1CCN(C(=O)Nc2ccc(Cl)c(Cl)c2)CC(=O)N(Cc2ccccc2)c2ccccc21 (stereo not drawn) [Example 44, 1-benzyl-4-(3,4-dichlorophenyi)carbamyl-7-methyl-2-oxo-2,3,4,5,6,7-hexahydro-1H-1,4-benzodiazonine] | 3160 nM | 158 nM | – | – |
| Cc1cccc(NC(=O)N2CCC(c3ccccc3)c3ccccc3N(Cc3ccccc3)C(=O)C2)c1 (stereo not drawn) [Example 50, 1-benzyl-7-phenyl-4-(3-methylphenyl)carbamyl-2-oxo-2,3,4,5,6,7-hexahydro-1H-1,4-benzodiazonine] | – | – | 5.8 | 5.9 |
| CC(=O)N1CCC(=O)c2ccccc2N(Cc2ccccc2)C(=O)C1CC12CC3CC(CC(C3)C1)C2 (racemic) [Example 34, (R/S)-4-acetyl-3-(1-adamantyl)methyl-1-benzyl-2,7-dioxo-2,3,4,5,6,7-hexahydro-1H-1,4-benzodiazonine] | 3980 nM | 2510 nM | – | – |
| CC(=O)N1[C@H](CC23CC4CC(CC(C4)C2)C3)C(=O)N(Cc2ccccc2)c2ccccc2C(=O)C[C@H]1C(=O)NCC(=O)O [Example 22, (3R,5S)-4-acetyl-3-(1-adamantyl)methyl-1-benzyl-5-carboxymethylaminocarbonyl-2,7-dioxo-2,3,4,5,6,7-hexahydro-1H-1,4-benzodiazonine] | 200 nM | 10000 nM | – | – |
| COc1cccc(CN2C(=O)[C@@H](CC34CC5CC(CC(C5)C3)C4)N(C(C)=O)[C@H](C(=O)O)CC(=O)c3ccccc32)c1 [Example 13, (3R,5S)-4-acetyl-3-[(1-adamantyl)methyl]-1-(3-methoxy)benzyl-2,7-dioxo-2,3,4,5,6,7-hexahydro-1H-1,4-benzodiazonine-5-carboxylate] | 2510 nM | 3160 nM | – | – |
| Cc1cccc(NC(=O)N2CCC(=O)c3ccccc3N(CC(=O)N3CCCC3)C(=O)C2)c1 [Example 6, 4-(3-methylphenyl)carbamyl-2,7-dioxo-1-pyrrolidinoyl-methyl-2,3,4,5,6,7-hexahydro-1H-1,4-benzodiazonine] | 10000 nM | 5010 nM | – | – |
| CC(=O)N1[C@H](CC2CCCCCC2)C(=O)N(Cc2ccccc2)c2ccccc2C(=O)C[C@H]1C(=O)NCC(=O)O [Example 39, (3R,5S)-4-acetyl-1-benzyl-5-carboxymethylaminocarbonyl-3-cycloheptylmethyl-2,7-dioxo-2,3,4,5,6,7-hexahydro-1H-1,4-benzodiazonine] | – | – | 5.6 | 5.0 |
| 1-benzyl-7-hydroxy-4-(3-methylphenyl)carbamyl-2-oxo-2,3,4,5,6,7-hexahydro- 1H-1,4-benzodiazonine (isomer 1) [Example 7] | – | – | 5.0 | 5.8 |
| CC(=O)N1[C@H](CC23CC4CC(CC(C4)C2)C3)C(=O)N(Cc2cccc(F)c2)c2ccccc2C(=O)C[C@H]1C(=O)NCC(=O)O [Example 60, (3R,5S)-4-acetyl-3-(1-adamantyl)methyl-1-(3-fluorobenzyl)-5-carboxymethylaminocarbonyl-2,7-dioxo-2,3,4,5,6,7-hexahydro-1H-1,4-benzodiazonine] | 200 nM | 10000 nM | – | – |
| COc1cccc(NC(=O)N2CCCc3ccccc3N(CC(=O)OC(C)(C)C)C(=O)C2)c1 [Example 55, 1-tert-butyloxycarbonylmethyl-4-(3-methoxyphenyl)carbamyl-2-oxo-2,3,4,5,6,7-hexahydro-1H-1,4-benzodiazonine] | 10000 nM | 1000 nM | – | – |
| CC(=O)N1[C@H](CC23CC4CC(CC(C4)C2)C3)C(=O)N(Cc2ccccc2)c2ccccc2C(=O)C[C@H]1C(=O)NCCC(=O)O [Example 23, (3R,5S)-4-acetyl-3-(1-adamantyl)methyl-1-benzyl-5-(2-carboxy)ethylaminocarbonyl-2,7-dioxo-2,3,4,5,6,7-hexahydro-1H-1,4-benzodiazonine] | 1000 nM | 10000 nM | – | – |
| CC(C)(C)OC(=O)CN1C(=O)CN(C(=O)Oc2ccccc2)CCC(=O)c2ccccc21 [Example 43] | 15800 nM | 10000 nM | – | – |
| CC1CCN(C(=O)Nc2ccc3ccccc3c2)CC(=O)N(Cc2ccccc2)c2ccccc21 (stereo not drawn) [Example 45, 1-benzyl-7-methyl-4-(2-naphthyl)carbamyl-2-oxo-2,3,4,5,6,7-hexahydro-1H-1,4-benzodiazonine] | 10000 nM | 79.4 nM | – | – |
| CC(=O)N1[C@H](CC23CC4CC(CC(C4)C2)C3)C(=O)N(Cc2ccccc2)c2ccccc2C(=O)C[C@H]1C(=O)O [Example 11, (3R,5S) 4-acetyl-3-[(1-adamantyl)methyl]-1-benzyl-2,7-dioxo-2,3,4,5,6,7-hexahydro-1H-1,4-benzodiazonine-5-carboxylate] | 1000 nM | 5010 nM | – | – |
| CC(=O)N1[C@H](CC23CC4CC(CC(C4)C2)C3)C(=O)N(Cc2cccc(Cl)c2)c2ccccc2C(=O)C[C@H]1C(=O)O [Example 15] | 1260 nM | 1580 nM | – | – |
| CC(=O)N1[C@H](CC23CC4CC(CC(C4)C2)C3)C(=O)N(C)c2ccccc2C(=O)C[C@H]1C(=O)O [Example 21, (3R,5S)-4-acetyl-3-(1-adamantyl)methyl-1-methyl-2,7-dioxo-2;3,4,5,6,7-hexahydro-1H-1,4-benzodiazonine-5-carboxylate] | 7940 nM | 6310 nM | – | – |
